Assay results published in ChEMBL document CHEMBL5523757, “Discovery, Synthesis, and Activity Evaluation of Novel Five-Membered Sulfur-Containing Heterocyclic Nucleosides as Potential Anticancer Agents In Vitro and In Vivo” (J Med Chem, 2024).
Activity calls are given as the source filed them.

Legend:
[1] = target: Small ribosomal subunit protein eS6 (Homo sapiens) (UniProt P62753); assay: Inhibition of RPS6 in human HeLa cells assessed as downregulation of RPS6 expression at 2 to 8 uM incubated for 48 hrs by Western blot analysis; format: cell-based; details: dose 2-8 µM
HeLa [2] = assay: Induction of autophagy in human HeLa cells assessed as upregulation of Beclin-1 expression at 2 to 8 uM incubated for 48 hrs by Western blot analysis; format: functional, cell-based; details: dose 2-8 µM
HeLa [3] = assay: Induction of autophagy in human HeLa cells assessed as increase in number of MDC-positive cells incubated for 48 hrs by MDC staining based fluorescence microscopic analysis; format: functional, cell-based
HeLa [4] = assay: Inhibition of cell invasion in human HeLa cells at 2 to 8 uM incubated for 48 hrs by crystal violet staining based transwell invasion assay; format: functional; details: dose 2-8 µM
HeLa [5] = assay: Induction of autophagy in human HeLa cells assessed as downregulation of PI3K phosphorylation at 2 to 8 uM incubated for 48 hrs by Western blot analysis; format: functional, cell-based; details: dose 2-8 µM
HeLa [6] = assay: Antitumor activity against human HeLa cells xenografted in BALB/c mouse assessed as reduction in tumor volume at 15 to 60 mg/kg,ip once daily for 14 days; format: functional, organism-based; details: dose 15-60 mg/kg, time 14.0 day
HeLa [7] = assay: Induction of apoptosis in human HeLa cells assessed as upregulation of cleaved PARP expression incubated for 48 hrs by Western blot analysis; format: functional, cell-based
HeLa [8] = assay: Induction of autophagy in human HeLa cells assessed as upregulation of Beclin-1 expression incubated for 48 hrs by immunofluorescence assay; format: functional, cell-based
HeLa [9] = assay: Induction of autophagy in human HeLa cells assessed as downregulation of mTOR phosphorylation at 2 to 8 uM incubated for 48 hrs by Western blot analysis; format: functional, cell-based; details: dose 2-8 µM
HeLa [10] = assay: Induction of autophagy in human HeLa cells with siRNA-mediated RPS6 knockdown assessed as upregulation of Beclin-1 expression at 4 uM incubated for 48 hrs by Western blot analysis; format: functional, cell-based
Cell membrane [11] = assay: Disruption of mitochondrial membrane in human HeLa cells assessed as decrease in fluorescence intensity at 2 to 8 uM incubated for 48 hrs by mito-tracker green dye based fluorescence microscopic analysis; format: cell membranes; details: dose 2-8 µM
HeLa [12] = assay: Induction of apoptosis in human HeLa cells assessed as upregulation of Bax expression incubated for 48 hrs by Western blot analysis; format: functional, cell-based
HeLa [13] = assay: Induction of endoplasmic reticulum (ER) stress in human HeLa cells assessed as increase in red fluorescence intensity at 2 to 8 uM incubated for 48 hrs by ER-tracker red dye based fluorescence microscopic analysis; format: functional, cell-based; details: dose 2-8 µM
HeLa [14] = assay: Inhibition of colony formation in human HeLa cells at 2 to 8 uM incubated for 2 weeks by crystal violet staining based microscopic analysis; format: functional, cell-based; details: dose 2-8 µM
HeLa [15] = assay: Induction of autophagy in human HeLa cells assessed as downregulation of SQSTM1/p62 expression at 2 to 8 uM incubated for 48 hrs by Western blot analysis; format: functional, cell-based; details: dose 2-8 µM
HeLa [16] = assay: Antitumor activity against human HeLa cells xenografted in BALB/c mouse assessed as reduction in tumor weight at 15 to 60 mg/kg,ip once daily for 14 days; format: functional, organism-based; details: dose 15-60 mg/kg, time 14.0 day
Cell membrane [17] = assay: Induction of mitochondrial membrane potential loss in human HeLa cells assessed as decrease in red fluorescence at 2 to 8 uM incubated for 48 hrs by JC-1 staining based flow cytometry; details: dose 2-8 µM
HeLa [18] = assay: Induction of apoptosis in human HeLa cells assessed as upregulation of p53 expression incubated for 48 hrs by Western blot analysis; format: functional, cell-based
HeLa [19] = assay: Induction of autophagy in human HeLa cells with siRNA-mediated RPS6 knockdown assessed as downregulation of SQSTM1/p62 expression at 4 uM incubated for 48 hrs by Western blot analysis; format: functional, cell-based
HeLa [20] = assay: Inhibition of cell migration in human HeLa cells incubated for 48 hrs by scratch wound healing assay; format: functional, cell-based
HeLa [21] = assay: Induction of autophagy in human HeLa cells assessed as downregulation of PI3K expression at 2 to 8 uM incubated for 48 hrs by Western blot analysis; format: functional, cell-based; details: dose 2-8 µM
[22] = target: Small ribosomal subunit protein eS6 (Homo sapiens) (UniProt P62753); assay: Inhibition of RPS6 in human HeLa cells assessed as downregulation of RPS6 phosphorylation at 2 to 8 uM incubated for 48 hrs by Western blot analysis; format: cell-based; details: dose 2-8 µM
HeLa [23] = assay: Induction of autophagy in human HeLa cells assessed as downregulation of AKT expression at 2 to 8 uM incubated for 48 hrs by Western blot analysis; format: functional, cell-based; details: dose 2-8 µM
HeLa [24] = assay: Induction of autophagy in human HeLa cells assessed as downregulation of mTOR expression at 2 to 8 uM incubated for 48 hrs by Western blot analysis; format: functional, cell-based; details: dose 2-8 µM
HeLa [25] = assay: Induction of autophagy in human HeLa cells with siRNA-mediated RPS6 knockdown assessed as upregulation of LC3 expression at 4 uM incubated for 48 hrs by Western blot analysis; format: functional, cell-based
HeLa [26] = assay: Induction of autophagy in human HeLa cells assessed as downregulation of AKT phosphorylation at 2 to 8 uM incubated for 48 hrs by Western blot analysis; format: functional, cell-based; details: dose 2-8 µM
Cell membrane [27] = assay: Disruption of lysosomal membrane in human HeLa cells assessed as decrease in fluorescence intensity at 2 to 8 uM incubated for 48 hrs by lyso-tracker red dye based fluorescence microscopic analysis; format: cell membranes; details: dose 2-8 µM
HeLa [28] = assay: Induction of apoptosis in human HeLa cells assessed as upregulation of cleaved caspase-3 expression incubated for 48 hrs by Western blot analysis; format: functional, cell-based
HeLa [29] = assay: Induction of autophagy in human HeLa cells assessed as upregulation of LC3 expression incubated for 48 hrs by immunofluorescence assay; format: functional, cell-based
Cell membrane [30] = assay: Induction of mitochondrial membrane potential loss in human HeLa cells assessed as increase in green fluorescence at 2 to 8 uM incubated for 48 hrs by JC-1 staining based flow cytometry; details: dose 2-8 µM
HeLa [31] = assay: Induction of autophagy in human HeLa cells assessed as upregulation of LC3 expression at 2 to 8 uM incubated for 48 hrs by Western blot analysis; format: functional, cell-based; details: dose 2-8 µM
HeLa [32] = assay: Induction of cell cycle arrest in human HeLa cells at 2 to 8 uM; format: functional, cell-based; details: dose 2-8 µM
HeLa [33] = assay: Induction of autophagy in human HeLa cells assessed as increase in number of autophagosomes incubated for 48 hrs by transmission electron microscopic analysis; format: functional, cell-based
HeLa [34] = assay: Antitumor activity against human HeLa cells xenografted in BALB/c mouse assessed as necrotic cells in tumor at 15 to 60 mg/kg,ip once daily for 14 days; format: functional, organism-based; details: dose 15-60 mg/kg, time 14.0 day
[35] = target: Small ribosomal subunit protein eS6 (Homo sapiens) (UniProt P62753); assay: Binding affinity to RPS6 in human HeLa cells assessed as increase in protein abundance in presence of pronase by DARTS assay; format: cell-based
[36] = target: Small ribosomal subunit protein eS6 (Homo sapiens) (UniProt P62753); assay: Binding affinity to RPS6 in human HeLa cells assessed as stabilization of protein at 100 uM at 70 degreeC by cellular thermal shift assay; format: cell-based

CCOC(=O)C[C@H]1CSC[C@]1(C(=O)OCC)n1cnc2c(Cl)nc(Cl)nc21 (racemic)
inactive: Activity (HeLa [32])
active: inhibition [1] | Activity (HeLa [2]) | Activity (HeLa [3]) Dose-Dependent Effect | inhibition (HeLa [4]) | Activity (HeLa [5]) | Activity (HeLa [6]) | Activity (HeLa [7]) Dose-Dependent Effect | Activity (HeLa [8]) | Activity (HeLa [9]) | Activity (HeLa [10]) | Activity (Cell membrane [11]) | Activity (HeLa [12]) Dose-Dependent Effect | Activity (HeLa [13]) | inhibition (HeLa [14]) | Activity (HeLa [15]) | Activity (HeLa [16]) | Activity (Cell membrane [17]) | Activity (HeLa [18]) Dose-Dependent Effect | Activity (HeLa [19]) | inhibition (HeLa [20]) Dose-Dependent Effect | Activity (HeLa [21]) | inhibition [22] | Activity (HeLa [23]) | Activity (HeLa [24]) | Activity (HeLa [25]) | Activity (HeLa [26]) | Activity (Cell membrane [27]) | Activity (HeLa [28]) Dose-Dependent Effect | Activity (HeLa [29]) | Activity (Cell membrane [30]) | Activity (HeLa [31]) | Activity (HeLa [33]) Dose-Dependent Effect | Activity (HeLa [34]) | Activity [35] | Activity [36]
